PMC5421785, “Citrullination only infrequently impacts peptide binding to HLA class II MHC” (PLoS ONE, 2017)
Ends that are not written are not given here.

Tests used:
Assay in all cases: HLA class II peptide binding, inhibition of radiolabeled peptide binding to purified MHC; for IC50 DRB1*01:01: competition with radiolabeled peptide (0.1–1 nM); for IC50 DRB1*04:01: competition with radiolabeled peptide (0.1–1 nM)
DRB4*01:01 = biological target: T1, DRB4*01:01 (Homo sapiens, UniProt P01903+P13762, G164S); details: Other DR, competition with radiolabeled peptide, two-day incubation, three or more independent experiments
T1 construct: EBV transformed homozygous cell lines were used as sources of MHC molecules; endogenous in cells; host or cells: EBV transformed homozygous cell lines

DRB1*07:01 = DRB1*07:01 (Homo sapiens, UniProt P01903+P01911, A100R/A102G/A103Q/D57E/D86V/E43K/F76Y/K127E/L162R/M171V/P40G/Q125H/Q99D/R33Q/R42Y/R54Q/S133A/S66F/T210M/V115G/Y107V/Y59L/Y89S); details: Other DR, competition with radiolabeled peptide, two-day incubation, three or more independent experiments
DRB1*11:01 = DRB1*11:01 (Homo sapiens, UniProt P01903+P01911, A100R/A169T/A87E/I96F/K41T/L162R/M171V/P40S/Q125H/Q178H/Q39Y/Q99D/R42S/S66Y/T262R/V115G/W38E); details: SE-, competition with radiolabeled peptide, two-day incubation, three or more independent experiments
DRB1*10:01 = DRB1*10:01 (Homo sapiens, UniProt P01903+P01911, A100R/A169T/D57E/F55L/F60V/F69Y/F76Y/I96L/L162R/M171V/P40V/Q260P/Q39E/Q99R/R195Q/R42F/S149N/S66Y/T210M/V115G/V67A/W38E/Y59R/Y61H); details: SE+, competition with radiolabeled peptide, two-day incubation, three or more independent experiments
DRB1*08:02 = DRB1*08:02 (Homo sapiens, UniProt P01903+P01911, A100R/A103L/A169T/F76Y/H45Y/I96F/K41T/L162R/M171V/P40S/Q125H/Q178H/Q39Y/Q99D/R218S/R42G/S66Y/V115G/W38E); details: Other DR, competition with radiolabeled peptide, two-day incubation, three or more independent experiments
DRB5*01:01 = biological target: T2, DRB5*01:01 (Homo sapiens, UniProt P01903+Q30154); details: Other DR, competition with radiolabeled peptide, two-day incubation, three or more independent experiments
T2 construct: EBV transformed homozygous cell lines were used as sources of MHC molecules; endogenous in cells; host or cells: EBV transformed homozygous cell lines

DPB1*04:01 = biological target: T3, DPB1*04:01 (Homo sapiens, UniProt P04440+P20036); details: DP; purified MHC, competition with radiolabeled peptide, two-day incubation, three or more independent experiments
T3 construct: EBV transformed homozygous cell lines were used as sources of MHC molecules; endogenous in cells; host or cells: EBV transformed homozygous cell lines
T3 sequence (P04440 30-258): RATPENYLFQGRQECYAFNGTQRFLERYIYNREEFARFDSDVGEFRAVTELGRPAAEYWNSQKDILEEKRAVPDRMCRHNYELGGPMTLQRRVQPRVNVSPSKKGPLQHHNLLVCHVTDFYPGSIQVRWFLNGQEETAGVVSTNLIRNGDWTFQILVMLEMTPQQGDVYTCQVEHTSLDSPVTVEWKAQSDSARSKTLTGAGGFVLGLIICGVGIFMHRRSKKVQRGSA
T3 sequence (P20036 29-260 partner): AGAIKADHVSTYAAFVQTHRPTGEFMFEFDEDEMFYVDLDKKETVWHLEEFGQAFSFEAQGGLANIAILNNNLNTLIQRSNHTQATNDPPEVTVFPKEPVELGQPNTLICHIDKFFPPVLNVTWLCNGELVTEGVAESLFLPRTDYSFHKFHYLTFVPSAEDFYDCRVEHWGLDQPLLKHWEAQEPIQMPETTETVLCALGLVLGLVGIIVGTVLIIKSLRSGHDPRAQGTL

HLA-DRB1*04:01 = biological target: T4, HLA-DRB1*04:01 (Homo sapiens, UniProt P01903+P01911, A100K/A169T/F76Y/I96L/K127E/L162R/M171V/N62H/P40V/Q125Y/R42H/S133A/S149N/S66Y/V115G/V209L/W38E); details: read-out: IC50 DRB1*04:01; note: competition with radiolabeled peptide (0.1–1 nM)
T4 construct: EBV transformed homozygous cell lines were used as sources of MHC molecules; endogenous in cells; host or cells: EBV transformed homozygous cell lines

DRB1*16:02 = DRB1*16:02 (Homo sapiens, UniProt P01903+P01911, A100R/F76Y/I96L/Q99D/V115G); details: SE-, competition with radiolabeled peptide, two-day incubation, three or more independent experiments
DRB1*04:02 = DRB1*04:02 (Homo sapiens, UniProt P01903+P01911, A100E/A169T/F76Y/K127E/L162R/M171V/N62H/P40V/Q125Y/Q99D/R42H/S133A/S149N/S66Y/V209L/W38E); details: SE-, competition with radiolabeled peptide, two-day incubation, three or more independent experiments
DQB1*03:01 = DQB1*03:01 (Homo sapiens, UniProt P01909+P01920); details: DQ, competition with radiolabeled peptide, two-day incubation, three or more independent experiments
DRB1*13:02 = DRB1*13:02 (Homo sapiens, UniProt P01903+P01911, A100E/A169T/K41T/L162R/M171V/P40S/Q125H/Q178H/Q39Y/Q99D/R42S/S66N/T262R/V115G/W38E/Y61H); details: SE-, competition with radiolabeled peptide, two-day incubation, three or more independent experiments
DRB1*04:05 = DRB1*04:05 (Homo sapiens, UniProt P01903+P01911, A100R/A169T/D86S/F76Y/I96L/K127E/L162R/M171V/N62H/P40V/Q125Y/R42H/S133A/S149N/S66Y/V115G/V209L/W38E); details: SE+, competition with radiolabeled peptide, two-day incubation, three or more independent experiments
DRB1*03:01 = DRB1*03:01 (Homo sapiens, UniProt P01903+P01911, A100K/A102G/A103R/A169T/F55Y/I96L/K41T/L162R/M171V/P40S/Q125H/Q178H/Q39Y/R42S/S66N/T106N/T262R/W38E/Y61H); details: Other DR, competition with radiolabeled peptide, two-day incubation, three or more independent experiments
DRB3*02:02 = DRB3*02:02 (Homo sapiens, UniProt P01903+P79483, A212P/D57E/F66Y/L67A/R103Q/R218S/R40L/S89Y/T80R/V86D/Y55F/Y59H); details: Other DR, competition with radiolabeled peptide, two-day incubation, three or more independent experiments
DRB1*15:01 = biological target: T5, DRB1*15:01 (Homo sapiens, UniProt P01903+P01911); details: SE-, competition with radiolabeled peptide, two-day incubation, three or more independent experiments
T5 construct: EBV transformed homozygous cell lines were used as sources of MHC molecules; endogenous in cells; host or cells: EBV transformed homozygous cell lines

DRB1*09:01 = DRB1*09:01 (Homo sapiens, UniProt P01903+P01911, A100R/A103E/D57H/D86V/F55Y/F60I/F76Y/I96F/K127E/L162R/M171V/P40D/Q125H/Q99R/R33Q/R42F/S133A/S66N/T210M/V115G/W38K/Y107V/Y59G/Y89S); details: Other DR, competition with radiolabeled peptide, two-day incubation, three or more independent experiments
HLA-DRB1*01:01 = biological target: T6, HLA-DRB1*01:01 (Homo sapiens, UniProt P01903+P01911, A100R/D57E/F55L/F60I/F76Y/I96L/L162R/M171V/P40L/Q125E/R42F/V115G/Y59C); details: read-out: IC50 DRB1*01:01; note: competition with radiolabeled peptide (0.1–1 nM)
T6 construct: EBV transformed homozygous cell lines were used as sources of MHC molecules; endogenous in cells; host or cells: EBV transformed homozygous cell lines

DRB3*01:01 = biological target: T7, DRB3*01:01 (Homo sapiens, UniProt P01903+P79483); details: Other DR, competition with radiolabeled peptide, two-day incubation, three or more independent experiments
T7 construct: EBV transformed homozygous cell lines were used as sources of MHC molecules; endogenous in cells; host or cells: EBV transformed homozygous cell lines

DRB1*04:04 = DRB1*04:04 (Homo sapiens, UniProt P01903+P01911, A100R/A169T/F76Y/I96L/K127E/L162R/M171V/N62H/P40V/Q125Y/R42H/S133A/S149N/S66Y/V209L/W38E); details: SE+, competition with radiolabeled peptide, two-day incubation, three or more independent experiments
DRB1*12:01 = DRB1*12:01 (Homo sapiens, UniProt P01903+P01911, A100R/A169T/D57E/D86V/F55L/H45Y/K41T/L162R/M171V/P40S/Q125H/Q178H/Q39Y/Q99D/R42G/S66L/T262R/V114A/V67L/W38E/Y59H/Y61H/Y89S); details: SE-, competition with radiolabeled peptide, two-day incubation, three or more independent experiments

Chain of DQB1*03:01 (P01920 33-261, other chains not shown): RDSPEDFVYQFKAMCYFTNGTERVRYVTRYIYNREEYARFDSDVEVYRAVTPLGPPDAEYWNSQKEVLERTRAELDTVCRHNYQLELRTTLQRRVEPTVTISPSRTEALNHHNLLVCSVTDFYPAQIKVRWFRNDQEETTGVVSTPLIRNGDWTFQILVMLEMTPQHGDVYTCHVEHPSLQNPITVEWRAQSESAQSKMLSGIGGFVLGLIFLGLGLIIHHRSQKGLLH

With NQDFTNRINKLKNS [Fibrinogen 78–91 WT] the IC50 (DRB4*01:01) was 7700 nM, the IC50 (DRB1*07:01) was over 30000 nM and the IC50 (DRB1*11:01) was 13900 nM. It also gave an IC50 (DRB1*10:01) of 3580 nM, an IC50 (DRB1*08:02) of 457 nM and an IC50 (DRB5*01:01) of 23 nM. For the same sequence, the IC50 (DPB1*04:01) was over 30000 nM, the IC50 (HLA-DRB1*04:01) was over 30000 nM and the IC50 (DRB1*16:02) was 8430 nM. The IC50 (DRB1*04:02) was over 30000 nM, the IC50 (DQB1*03:01) was over 30000 nM and the IC50 (DRB1*13:02) was over 30000 nM. It also gave an IC50 (DRB1*04:05) of 12800 nM, an IC50 (DRB1*03:01) of over 30000 nM and an IC50 (DRB3*02:02) of over 30000 nM. It also gave an IC50 (DRB1*15:01) of over 30000 nM, an IC50 (DRB1*09:01) of 11100 nM and an IC50 (HLA-DRB1*01:01) of over 30000 nM. The IC50 (DRB3*01:01) was over 30000 nM, the IC50 (DRB1*04:04) was 2050 nM and the IC50 (DRB1*12:01) was 27800 nM.

Work on SAVRLRSSVPGVR [Vimentin 66–78 WT] yielded an IC50 (DRB4*01:01) of 2020 nM, an IC50 (DRB1*07:01) of over 30000 nM and an IC50 (DRB1*11:01) of 11800 nM. The IC50 (DRB1*10:01) was 5170 nM, the IC50 (DRB1*08:02) was 53 nM and the IC50 (DRB5*01:01) was 2230 nM. For the same sequence, the IC50 (DPB1*04:01) was over 30000 nM, the IC50 (HLA-DRB1*04:01) was 13100 nM and the IC50 (DRB1*16:02) was 1080 nM. The IC50 (DRB1*04:02) was 927 nM, the IC50 (DQB1*03:01) was 2100 nM and the IC50 (DRB1*13:02) was 11400 nM. For the same sequence, the IC50 (DRB1*04:05) was 3960 nM, the IC50 (DRB1*03:01) was 12200 nM and the IC50 (DRB3*02:02) was 9090 nM. It also gave an IC50 (DRB1*15:01) of 4.1 nM, an IC50 (DRB1*09:01) of 1410 nM and an IC50 (HLA-DRB1*01:01) of 3260 nM. The IC50 (DRB3*01:01) was over 30000 nM, the IC50 (DRB1*04:04) was 206 nM and the IC50 (DRB1*12:01) was 15900 nM.

“VVLLVATEGRVRVNSAYQDK [Aggrecan 84–103 WT]” showed an IC50 (DRB4*01:01) of 955 nM, an IC50 (DRB1*07:01) of 3030 nM and an IC50 (DRB1*11:01) of 520 nM. It also gave an IC50 (DRB1*10:01) of 643 nM, an IC50 (DRB1*08:02) of 3960 nM and an IC50 (DRB5*01:01) of 16 nM. The IC50 (DPB1*04:01) was 26200 nM, the IC50 (HLA-DRB1*04:01) was 713 nM and the IC50 (DRB1*16:02) was 20500 nM. For the same sequence, the IC50 (DRB1*04:02) was 501 nM, the IC50 (DQB1*03:01) was 229 nM and the IC50 (DRB1*13:02) was 268 nM. It also gave an IC50 (DRB1*04:05) of 183 nM, an IC50 (DRB1*03:01) of 530 nM and an IC50 (DRB3*02:02) of 245 nM. For the same sequence, the IC50 (DRB1*15:01) was 1010 nM, the IC50 (DRB1*09:01) was 730 nM and the IC50 (HLA-DRB1*01:01) was 155 nM. It also gave an IC50 (DRB3*01:01) of 8460 nM, an IC50 (DRB1*04:04) of 565 nM and an IC50 (DRB1*12:01) of 1050 nM.
